Test results from patent US6375461B1 (Ultradent Products, Inc., priority 2000, dated 2002).
Like-named read-outs stand apart in the source and are kept apart here.

Columns and labels:
[1] = Reaction with iron-based astringents (ferric salts), formation of colored reaction products; assay type: physicochemical; settings: mixed with astringent salts
[2] = test system: heart rate and blood pressure; test: Systemic effects (heart rate, blood pressure) of retraction cords packed into the gingival sulcus; settings: retraction cords packed into a person's gingival sulcus
[3] = cited from earlier work
gingival tissue = test: Local effect on gingival tissue when used in gingival retraction cords; assay type: in vivo, patient
[4] = mixed with ferric salts; cited from earlier work
[5] = test system: heart rate and blood pressure; settings: in vivo

In the case of `CNC(C)CC1CCCCC1` (stereo not drawn) [Propylhexedrine, N,α-dimethylcyclohexaneethylamine], the “colored reaction products with astringent salts including ferric salts” value [1] is given as “without forming colored reaction products”, the “systemic effects: heart rate and blood pressure” value [2] is given as “does not produce the systemic adrenal effects” and the “volume of water in which 1 gram is dissolvable” value [3] is given as 500 mL. For the same compound, the “stiffening and retraction of gingival tissue” value (gingival tissue; gingival tissue) was “localized stiffening and retraction of gingival tissue” and the vasoconstricting effect (gingival tissue; used in gingival retraction cords) was “localized vasoconstricting effect”.
In the case of `CNC[C@H](O)c1ccc(O)c(O)c1` [epinephrine], the “colored reaction products with ferric salts (known)” value [4] is given as “immediately form purple-colored reaction products” and the “systemic effects: heart rate and blood pressure” value [5] is given as “increase a patient's heart rate and blood pressure”.
